According to patent US11406642B2, “DNP and DNP prodrug treatment of neuromuscular, neurodegenerative, autoimmune, developmental, traumatic brain injury, concussion, dry eye disease, hearing loss and/or metabolic diseases” (priority 2016, dated 2022):
Entries after “also recorded” stand apart in the source; their conditions may differ.

Key:
[1] = Stability of II-38 in hydrochloric acid buffer, pH 1.2; type: physicochemical; conditions: pH 1.2, 37° C., 5% DMSO, within 8 h
Protocol: pH: Stability in aqueous buffers (37° C., pHs 1.2 and 7.4)
(§1) HPLC analysis was carried out on an Agilent 1200 Infinity Series Quatpump, equipped with a photodiode array detector and a computer integrating apparatus. An Inertsil ODS-3 column, C18, 5 μm, 4.6×50 mm (GL Science Inc. Japan) protected with a guard column: Alltima C18, 5 μm, 4.6×7.5 mm (Grace Discovery Sciences, IL, USA) was used as the stationary phase. An isocratic method with a mobile phase consisting of water/acetonitrile (70:30) containing 0.05% formic acid in each was used. A flow rate of 0.9 mL/min was used and detection was carried out at a UV wavelength of 250 nm.
Hydrochloric acid, pH 1.2 buffer was prepared. II-38 (2.5 mg) was dissolved in 0.125 mL of DMSO (5%). Reactions were initiated by adding II-38 dissolved in DMSO slowly and gradually to a total volume of 2.375 mL of HCl buffer, pH 1.2 (Table 1) in a Franz cell diffusion chamber preheated to 37° C. The solution was mixed for 30 sec every half an hour using magnetic stirrer. Samples of 20 μL (20 μg/mL of II-38) were collected at 0, 1, 2, 4, 6 and 8 h. Each sample was mixed with acetonitrile QS to 1 mL, vortex-mixed for 30 sec and centrifuged at 10,000 rpm at room temp. A volume of 10 μL of the supernatant was injected into the HPLC spectrometer for detection of 2,4-DNP and II-38 in HCl buffer, pH 1.2.

[2] = Stability in simulated intestinal fluid (SIF), pH 6.8; type: in vitro ADME; conditions: pH 6.8, 37° C.
Protocol: GI: Stability in simulated intestinal fluid (USP, 37° C.)
as §1
Formulation of II-38 in SIF buffer, pH 6.8: to formulate 1 mg/mL of II-38 in SIF, 2.6 mg of II-38 was dissolved in 0.13 mL of DMSO (i.e. 5%) and titrated slowly and gradually to a total volume of 2.47 mL of preheated SIF (Table 4) in a cell diffusion chamber preheated to 37° C. The solution was mixed for 30 sec every half an hour using magnetic stirrer. Samples of 20 μL (20 μg/mL of II-38) were collected at 0, 0.5, 1, 2, 4, 6 and 8 h (FIGS. 12A and 12B). Each sample was mixed with acetonitrile QS to 1 mL, vortex-mixed for 30 sec and centrifuged at 10,000 rpm at room temp. A volume of 10 μL of the supernatant was injected into the HPLC spectrometer (FIG. 11).

[3] = test system: mouse model of Alzheimer's disease; test: Alzheimer's disease mouse model, Morris Water Maze; type: in vivo; conditions: chronic treatment
Source text: (§2) In one embodiment, the invention provides compositions and methods for treating neurodegenerative diseases such as Alzheimer's disease, Parkinson, and Huntington's disease. It is believed that the complete lack of historic success is due to most pharmaceutical industries focusing on a downstream event, such as plaques/tangles, whereas the issue is likely upstream at the mitochondria causing high cellular stress.

spiny neurons = test: Model of Huntington's disease; type: in vivo; conditions: treatment for over 17-weeks
Source text: In one embodiment, the invention provides compositions and methods for treating Huntington's disease. […] DNP should prevent muscle loss since it reduces mitochondrial osmotic swelling by reducing intra-mitochondrial calcium concentration and inducing BDNF, which is a myokine (muscle protectant) outside of the brain.

dopaminergic neurons = test: Parkinson model using 6-OHDA; type: in vivo; conditions: chronic treatment
Source text: as §2

[4] = in rats, general statement; cited from earlier work
wildtype mice = test: Lifespan of chronically treated wildtype mice; type: in vivo; conditions: wildtype mice chronically treated with an extraordinarily low dose
Source text: (§3) Overt reactive oxygen species (ROSs) can be produced due to noise and certain ototoxic drugs that can damage the hair cells of the ear, resulting in either temporary or permanent hearing loss. Exposure to blast waves and continuous noise not only damaged the inner ear, but caused cell death in the hippocampus, suppressed neurogenesis and impaired memory function. Aging as well can manifest in mitochondrial dysfunction leading to hearing loss. It is emerging that attempts to treat hearing loss by targeting downstream issues is not very effective. In one embodiment, the compositions and methods of the invention relate to targeting oxidative stress upstream at the mitochondria that may be causative for many disorders. There have been a variety of attempts to lower cellular stress, such as administering anti-oxidants, however these drugs have limited tissue penetration into the brain and lower ROSs after they have been formed. […] While not being bound to theory, it is postulated that DNP modulates the mitochondrial membrane potential having a significant impact at preventing ROS formation in isolated mitochondria and in the treated wildtype mice. DNP treatment 3-hours post-ischemia reduced cerebral infarct volume 40% by protecting the penumbra or “threaten tissue” and could provide similar benefits after a blast to protect inner hair cells from eminent cell death. […]

Caco-2 = test: Caco-2; type: in vitro ADME
Source text: as §3

cerebral infarct = conditions: treatment 3-hours post-ischemia; cited from earlier work
CYP = test: Inhibition of CYP; type: in vitro ADME
Source text: as §3

SMILES | hydrolysis / stability in HCl buffer [1] | stability in SIF [2] | short term memory in the Morris Water Maze [3] | effect on spiny neurons (spiny neurons) | protection of dopaminergic neurons (dopaminergic neurons) | half-life [4] | lifespan (wildtype mice) | inhibition, Caco-2 (Caco-2) | reduction of cerebral infarct volume (cerebral infarct) | inhibition to CYP (CYP)
O=C(Oc1ccc([N+](=O)[O-])cc1[N+](=O)[O-])N1CCOCC1 [II-38, 2,4-Dinitrophenyl morpholine-4-carboxylate] | no significant hydrolysis; also recorded: did not show significant hydrolysis; also recorded: no evidence of 2,4-DNP formation | stable | – | – | – | – | – | – | – | –
O=[N+]([O-])c1ccc(O)c([N+](=O)[O-])c1 [2,4-DNP, 2,4-dinitrophenol] | – | – | strikingly improved | protection on the spiny neurons | positive protective effect | ~6 h | living longer than untreated mice | no inhibition | 40% | no inhibition
